The test system of one assay is Streptococcus. Briefly: GAS UMAA2166 growth inhibition – luminescence, BacTiterGlo, counter-screen for streptokinase expression inhibitor project, dose response (AID 1915).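 Further: potency for reduction of bacterial viability or growth.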 The format is functional, organism-based.
Assay [1] concerns Streptococcus sp. 'group A'. As to the kind of experiment: Streptococcus pyogenes SK(-)GAS viability under kanamycin – luminescence, BacTiterGlo, confirmation, counter-screen for streptokinase expression inhibitor project, dose response (AID 1900). The format is functional, organism-based.
In the next assay the target is T1, Protein RecA (Mycobacterium tuberculosis, UniProt P9WHJ3).
T1 sequence (P9WHJ3 whole entry): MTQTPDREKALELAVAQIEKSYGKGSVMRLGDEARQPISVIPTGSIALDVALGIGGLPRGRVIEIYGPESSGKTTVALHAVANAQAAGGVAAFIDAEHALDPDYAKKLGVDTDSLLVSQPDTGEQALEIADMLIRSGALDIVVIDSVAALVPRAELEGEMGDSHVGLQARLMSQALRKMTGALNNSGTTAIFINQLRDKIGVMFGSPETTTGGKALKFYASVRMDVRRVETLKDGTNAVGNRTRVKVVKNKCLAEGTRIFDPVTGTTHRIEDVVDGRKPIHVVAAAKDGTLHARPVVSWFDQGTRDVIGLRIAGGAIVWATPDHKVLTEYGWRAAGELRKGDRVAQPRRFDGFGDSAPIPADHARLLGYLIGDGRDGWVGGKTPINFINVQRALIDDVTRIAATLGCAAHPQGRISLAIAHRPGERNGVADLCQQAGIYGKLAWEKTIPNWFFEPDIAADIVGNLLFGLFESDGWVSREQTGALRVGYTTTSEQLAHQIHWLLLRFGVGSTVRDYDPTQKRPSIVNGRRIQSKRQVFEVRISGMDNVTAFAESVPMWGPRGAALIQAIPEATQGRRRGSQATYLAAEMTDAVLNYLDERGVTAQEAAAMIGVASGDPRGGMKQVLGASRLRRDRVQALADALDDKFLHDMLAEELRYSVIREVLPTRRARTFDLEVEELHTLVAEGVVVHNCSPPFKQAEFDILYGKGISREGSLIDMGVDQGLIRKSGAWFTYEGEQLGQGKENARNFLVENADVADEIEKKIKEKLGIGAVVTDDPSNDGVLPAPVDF
Briefly: Fluorescence Cell-Free Homogeneous Dose Retest to Identify Inhibitors of RecA-Intein Splicing Activity. [Related pubchem assays (depositor defined):AID2097, AID2223, AID489010, AID492950]. Format: functional.

Another assay concerns the target T2, Streptokinase A (Streptococcus pyogenes serotype M1, UniProt P10520).
T2 sequence (P10520 whole entry): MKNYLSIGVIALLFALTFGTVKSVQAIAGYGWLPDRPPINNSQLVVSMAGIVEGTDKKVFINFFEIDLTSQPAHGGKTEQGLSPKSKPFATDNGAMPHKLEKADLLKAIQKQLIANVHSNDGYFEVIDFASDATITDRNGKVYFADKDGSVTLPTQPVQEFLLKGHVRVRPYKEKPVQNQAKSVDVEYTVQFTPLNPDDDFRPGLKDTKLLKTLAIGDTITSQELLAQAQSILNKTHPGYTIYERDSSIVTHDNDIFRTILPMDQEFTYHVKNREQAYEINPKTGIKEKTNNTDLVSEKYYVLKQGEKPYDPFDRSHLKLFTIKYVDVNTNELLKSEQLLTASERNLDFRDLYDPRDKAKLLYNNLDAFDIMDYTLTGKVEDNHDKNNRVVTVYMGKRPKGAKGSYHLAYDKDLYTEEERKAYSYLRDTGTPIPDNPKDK
Briefly: viability-normalized secreted streptokinase activity reduction – plasminogen activation absorbance, OD405, dose response (AID 1914).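 Further: secreted streptokinase activity via plasminogen activation per viability signal from cell pellet.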 The format is functional, Streptococcus pyogenes M1 GAS.

In assay [2] the target is T3, Replicative DNA helicase DnaB (Mycobacterium tuberculosis, UniProt P9WMR3).
T3 sequence (P9WMR3 whole entry): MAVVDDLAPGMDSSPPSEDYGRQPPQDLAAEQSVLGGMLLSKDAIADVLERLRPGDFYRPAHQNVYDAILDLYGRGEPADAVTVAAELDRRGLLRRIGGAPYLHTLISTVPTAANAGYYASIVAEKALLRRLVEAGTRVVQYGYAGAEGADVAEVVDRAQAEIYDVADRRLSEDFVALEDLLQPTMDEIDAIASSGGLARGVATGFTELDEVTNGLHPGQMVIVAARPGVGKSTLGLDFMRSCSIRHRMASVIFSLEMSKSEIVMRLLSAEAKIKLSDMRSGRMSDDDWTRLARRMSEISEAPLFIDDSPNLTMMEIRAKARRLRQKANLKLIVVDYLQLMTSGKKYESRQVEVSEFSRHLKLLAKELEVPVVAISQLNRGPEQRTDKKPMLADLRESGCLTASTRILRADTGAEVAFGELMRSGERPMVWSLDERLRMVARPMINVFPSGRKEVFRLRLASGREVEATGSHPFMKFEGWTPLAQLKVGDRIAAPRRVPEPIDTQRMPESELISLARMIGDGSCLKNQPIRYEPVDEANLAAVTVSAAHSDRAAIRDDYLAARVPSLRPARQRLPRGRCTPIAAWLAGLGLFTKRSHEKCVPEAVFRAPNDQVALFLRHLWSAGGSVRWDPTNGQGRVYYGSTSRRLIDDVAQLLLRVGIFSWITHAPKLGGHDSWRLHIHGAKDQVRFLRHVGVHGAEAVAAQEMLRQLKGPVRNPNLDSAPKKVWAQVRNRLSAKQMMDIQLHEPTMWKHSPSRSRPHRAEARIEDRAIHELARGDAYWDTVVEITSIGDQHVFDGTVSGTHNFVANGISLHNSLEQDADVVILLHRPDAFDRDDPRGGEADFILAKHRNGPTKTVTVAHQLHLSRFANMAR
Briefly: DnaB intein splicing inhibitors, dose response, biochemical, cell-free fluorescence (AID 449749). The format is functional.

The target in assay [3] is T4, Heat shock factor protein 1 (Mus musculus, UniProt P38532).
T4 sequence (P38532 whole entry): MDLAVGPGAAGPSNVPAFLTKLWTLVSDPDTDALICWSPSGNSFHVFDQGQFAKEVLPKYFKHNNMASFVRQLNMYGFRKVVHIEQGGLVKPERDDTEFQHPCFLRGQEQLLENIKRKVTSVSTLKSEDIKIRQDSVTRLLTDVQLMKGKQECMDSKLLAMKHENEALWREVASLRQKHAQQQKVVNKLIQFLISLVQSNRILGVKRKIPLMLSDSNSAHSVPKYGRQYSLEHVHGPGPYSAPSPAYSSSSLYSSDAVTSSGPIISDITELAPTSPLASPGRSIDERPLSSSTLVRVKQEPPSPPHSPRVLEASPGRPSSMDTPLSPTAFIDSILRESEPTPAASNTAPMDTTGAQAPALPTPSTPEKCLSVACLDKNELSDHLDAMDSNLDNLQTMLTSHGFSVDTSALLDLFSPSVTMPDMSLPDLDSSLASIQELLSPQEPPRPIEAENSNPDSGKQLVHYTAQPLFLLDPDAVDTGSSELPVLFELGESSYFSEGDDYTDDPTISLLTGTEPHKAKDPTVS
As to the kind of experiment: enhancement of HSF1-driven luciferase signal – cell-based, NIH3T3, luminescence, dose retest, confirmation (AID 435004).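 Further: stress induced by proteasome inhibitor MG132 added 30 min after compound; luciferase reporter driven by HSF1 response element in NIH3T3 cells; actives raise luminescence as potentiators of the MG132 stress response.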 Format: functional.

The nature of assay [4]: Luminescence Cell-Based Dose Confirmation HTS to Identify Activators of 5'UTR Stem-Loop Driven Alpha-Synuclein mRNA Translation in H4 Neuroglioblastoma Cells. [Related pubchem assays: 1829 (Project Summary), 1814 (Primary HTS)]. Format: functional.
A short description of assay [5]: Luminescence Cell-Based Dose Response HTS to Identify Activators of Luciferase Translation or Activity in H4 […] Cells. [Related pubchem assays: 1829 (Project Summary), 1814 (Primary HTS)]. Format: functional.
For the next assay, the system named is H4. As to the kind of experiment: Luminescence Cell-Based Dose Response HTS to Identify Activators of 5'UTR Stem-Loop Driven Prion Protein mRNA Translation in H4 Neuroglioblastoma Cells. [Related pubchem assays: 1829 (Project Summary), 1814 (Primary HTS)]. To be noted: Homo sapiens. Format: functional.
Another assay has as its system INS1. As to the kind of experiment: INS-1E survival protection against cytokine death – cell-based, luminescence, retest, dose response (AID 449756).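 Further: cell death triggered by IL-1 beta plus TNF-alpha plus IFN-gamma mixture; protective hits raise ATP signal compared with cytokine alone wells.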 The format is functional. To be noted: Rattus norvegicus, INS1.
A short description of assay [6]: viability of uninfected HEp-2 cells – cell-based, HTS, cytotoxicity control for RSV inhibitor project, dose response (AID 2410). Format: functional. To be noted: human respiratory syncytial virus.

Calls of active or inactive are those of the source. For most assays here, no stated cut-off is given here; in the data, actives have a measured EC50 and inactives only a lower limit. Where only a bound is given, the exact number is not on record here.

For the compound `COc1ccc(Br)cc1[C@H]1[C@@H]2C=CCC[C@@]2(C)C(=O)N1Cc1ccccc1`, the EC50 in the assay on Streptococcus was 11.1 µM (active); in assay [1] it was 7.12 µM (active); on Protein RecA, 26.7 µM (active); on Streptokinase A it was 37.6 µM (active). Further, the AC50 in [2] is > 380 µM (inactive).
For the compound `COc1ccc(N=Nc2ccc(CO)cc2)cc1`, the EC50 in [3] was > 260 µM (inactive).
With `CCOC(=O)C(/C=N/c1ccc(C#N)cc1)=C(/O)OCC`, the EC50 in assay [3] is > 260 µM (inactive).
Consider `O=C(NCCC1=CCCCC1)c1cnccn1`, for which the EC50 in [4] was 8.37 µM (active); in assay [5] it was 4.95 µM (active); in the assay with H4 it was 11 µM (active).
On to `CC1=C(CC(=O)c2ccc(Cl)cc2)C(=O)c2ccccc2C1=O`, for which the AC50 was 8.26 µM (active) in the assay with INS1 and 7.84 µM (active) in [2]. In addition, the EC50 at Protein RecA is 1.24 µM (active).
As to `CC1CCc2[nH]c3ccc(C(=O)N(C)CC(=O)Nc4ccccc4Br)cc3c2C1` (configuration not stated), in assay [6], the CC50 is 22 µM (active).
As for `Cc1ccc(F)cc1NC(=O)N1CCCN(c2ccc(C(F)(F)F)cn2)CC1`, the EC50 in assay [3] is > 260 µM (inactive).
Consider `Cc1nc(OCc2ccccc2)c2sc3nc4c(cc3c2n1)COC(C)(C)C4`, for which the half-maximal effective concentration (EC50) in [4] was 9.71 µM (active); in assay [5], 7.5 µM (active); in the assay with H4 it was > 120 µM (not active).
As to `O=C(NNC(=S)Nc1ccccc1)c1cccs1`, the figures for the concentration for a half-maximal effect (EC50) (in assay [4]; in assay [5]; in the assay on H4) were 11.2 µM (active), 12.9 µM (active) and 75.4 µM (active), respectively.
With `O=C(NC(=S)Nc1ccccc1C(F)(F)F)c1ccccc1F`, the EC50 in assay [3] was 143 µM (active).
For `Cc1noc(C)c1COC(=O)c1cc2ccccc2cc1O`, the cytotoxic concentration (CC50) in [6] is 43.1 µM (active).
Take `O=C(NNc1c(F)c(F)cc(F)c1F)c1ccc(Cl)nc1`: the EC50 in [3] was > 260 µM (inactive).
`COc1ccc(OCc2cc(C(=O)N(C)Cc3cc(C4CC4)[nH]n3)no2)c(Cl)c1`: the half-maximal effective concentration (EC50) in [4] is 28.2 µM (active); in [5], 69.5 µM (active); with H4, 37.8 µM (active).
`CN1CCN(C2=C(Cl)C(=O)N(C3CCCCC3)C2=O)CC1`: the figures for the EC50 (in assay [4]; in [5]; in the assay on H4) were 8.46 µM (active), 19.8 µM (active) and > 120 µM (not active), respectively.
In the case of `NC(=O)c1sc2nc(N3CCOCC3)c3c(c2c1N)CCCC3`, in assay [6], the CC50 is > 50 µM (active).
Turning to `Cc1nc2cc(NC(=O)N3CCC(c4ccccc4)C3)ccc2n1C` (configuration not stated), the 50% effective concentration (EC50) in [4] is 46.9 µM (active); in assay [5], 17.7 µM (active); with H4 it was 27.4 µM (active).
Regarding `COc1ccc(S(=O)(=O)N2CCN(c3nc(-c4cccnc4)nc4ccccc34)CC2)cc1`, the CC50 in assay [6] was 30.4 µM (active).
Take `c1ccc(-c2cc3n(c2)CCc2ccccc2-3)cc1`: the concentration giving a half-maximal response (EC50) in assay [4] was 10.7 µM (active); in [5], 15.9 µM (active); in the assay on H4, 22.7 µM (active).
Turning to `COc1ccccc1NS(=O)(=O)c1ccc(-c2cc(C)no2)s1`, the half-maximal effective concentration (EC50) in assay [4] is > 120 µM (not active); in assay [5], > 30 µM (not active); in the assay with H4, > 120 µM (not active).
With `Cc1cccc(C(=O)NC2CCCCCCC2)c1`, the concentration giving a half-maximal response (EC50) in assay [4] is 29.8 µM (active); in [5], 11.9 µM (active); with H4 it was > 120 µM (not active).
`Cc1ccccc1C1c2[nH]c3ccccc3c2CCN1C(=O)c1ccc(=O)n(C)n1` (configuration not stated): the 50% cytotoxic concentration (CC50) in assay [6] was 20.4 µM (active).
For `O=C(CCc1nnc2n(Cc3ccc(F)cc3)c(=O)c3ccccc3n12)N1CCN(c2ccccn2)CC1`, the CC50 in assay [6] was 37.4 µM (active).
Take `Nn1c(SCc2ccccc2F)nnc1-c1cccnc1`: the figures for the concentration giving a half-maximal response (EC50) (in assay [4]; in assay [5]; with H4) were 64.2 µM (active), 36.8 µM (active) and 33.4 µM (active), respectively.
For `CCOC(=O)c1c(C)n(C)c2ccc(OCC(O)Cn3c(C)nc4ccccc43)cc12` (configuration not stated), the cytotoxic concentration (CC50) in [6] is 19.4 µM (active).
For the compound `Cc1ccc(/C=N/N2CCN(Cc3ccccc3)CC2)s1`, the half-maximal effective concentration (EC50) is 21 µM (active) in [4], 11.9 µM (active) in assay [5] and > 120 µM (not active) with H4.
The corresponding values for `CCOC(=O)Nc1ccc2c(C)cc(=O)oc2c1` are 13 µM (active), 30.9 µM (active) and 12.9 µM (active).
The corresponding values for `CC(=O)Cn1ncc(N2CCCCC2)c(Cl)c1=O` are 24.6 µM (active), 11.5 µM (active) and 23.5 µM (active).
For the compound `Cc1ccccc1C1=NC(c2ccc(F)cc2F)ON1` (configuration not stated), the half-maximal effective concentration (EC50) in [4] was 33.6 µM (active); in [5], 8.1 µM (active); in the assay on H4, 33.8 µM (active).

These data come from ChEMBL document CHEMBL1201862, “PubChem BioAssay data set” (2004).
